Read-outs that look alike come from different tables or passages of the source. One block for each molecule: values may come before it.
What was measured:
[1] = target: T1, oestrone sulphatase (E1-STS) (Homo sapiens, UniProt P08842); assay: Inhibition of steroid sulphatase activity in placental microsomes; type: biochemical; parameters: from tissue; host or cells: human term placenta (microsomal preparation); settings: for inhibition at 0.01 µM / inhibition at 1 µM: read-out: Placental Microcsomes % inhibition
T1 sequence (P08842 22-583): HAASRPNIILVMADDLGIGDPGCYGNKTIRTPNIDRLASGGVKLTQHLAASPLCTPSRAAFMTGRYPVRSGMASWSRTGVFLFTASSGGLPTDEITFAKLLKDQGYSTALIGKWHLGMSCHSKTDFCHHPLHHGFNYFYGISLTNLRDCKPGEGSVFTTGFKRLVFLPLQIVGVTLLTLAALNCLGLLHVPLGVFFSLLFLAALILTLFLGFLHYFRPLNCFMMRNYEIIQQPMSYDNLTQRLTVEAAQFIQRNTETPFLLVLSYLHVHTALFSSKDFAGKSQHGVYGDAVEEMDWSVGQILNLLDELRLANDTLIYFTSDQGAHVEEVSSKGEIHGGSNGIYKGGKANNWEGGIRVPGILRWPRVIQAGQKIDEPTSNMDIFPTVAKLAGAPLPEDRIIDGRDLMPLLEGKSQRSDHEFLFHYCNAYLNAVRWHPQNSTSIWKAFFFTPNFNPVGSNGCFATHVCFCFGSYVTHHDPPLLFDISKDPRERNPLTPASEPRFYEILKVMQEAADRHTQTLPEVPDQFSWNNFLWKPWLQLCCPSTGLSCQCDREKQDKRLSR

[2] = Plate assay % inhibition; type: cell-based; settings: -ve % means stimulation
[3] = target: T1, oestrone sulphatase (E1-STS); assay: Inhibition of steroid sulphatase (E1-STS) activity in intact MCF-7 breast cancer cells; type: cell-based

Structure (SMILES): CCCCCN(CCCCC)S(=O)(=O)O[C@H]1CCC2C3CCc4cc(O)ccc4C3CC[C@@]21C (stereo partly drawn) [BLE99073, 3-Hydroxyestra-1,3,5(10)-trien-17β-O—(N,N-dipentyl)sulfamate]
inhibition at 0.01 µM [1]: 1.2%
inhibition at 1 µM [1]: -11.8%
melting point: 93 to 96 °C

melting point: 108 to 109 °C
Structure (SMILES): C[C@]12CCC3c4ccc(OCc5ccccc5)cc4CCC3C1CC[C@@H]2OS(N)(=O)=O (stereo partly drawn)

Structure (SMILES): CC1=C2CCC3c4ccc(OS(N)(=O)=O)cc4CCC3C2CC1 (stereo not drawn) [BLE00086]
inhibition at 0.1 µM ([2]; 0.1 μM): 8%
inhibition at 1 µM ([2]; 1 μM): 3%
inhibition at 10 µM ([2]; 10 μM): 14%

Structure (SMILES): C[C@]12CCC3c4ccc(OS(N)(=O)=O)cc4CCC3C1CC[C@H]2OS(=O)(=O)N(Cc1ccccc1)Cc1ccccc1 (stereo partly drawn) [BLE99068, 3-O-Sulfamoyl-estra-1,3,5(10)-trien-17α-O—(N,N-dibenzyl)sulfamate]
inhibition at 0.1 µM ([2]; 0.1 μM): -18%
inhibition at 1 µM ([2]; 1 μM): -1%
inhibition at 10 µM ([2]; 10 μM): 19%
inhibition at 0.01 µM ([1]; 10 nM, -ve % means stimulation): 4.9%
inhibition at 1 µM ([1]; 1 μM, -ve % means stimulation): 58.2%

Structure (SMILES): C[C@]12CCC3c4ccc(O)cc4CCC3C1CC[C@@H]2OS(=O)(=O)N(Cc1ccccc1)Cc1ccccc1 (stereo partly drawn) [BLE99060, 3-Hydroxyestra-1,3,5(10)-trien-17β-O—(N,N-dibenzyl)sulfamate]
inhibition at 0.01 µM ([1]; 10 nM, -ve % means stimulation): -3.2%
inhibition at 1 µM ([1]; 1 μM, -ve % means stimulation): 1.36%
melting point: 60 to 63 °C

% Inhibition of E1-STS activity in placental microsomes ([1]; 10 μM): 31.4 ± 1.6%
% Inhibition of E1-STS activity in placental microsomes ([1]; 25 µM): 41.9 ± 2.3%
% Inhibition of E1-STS activity in placental microsomes ([1]; 50 µM): 62.5 ± 7.5%
% Inhibition of E1-STS activity in placental microsomes ([1]; 100 µM): 69.0 ± 4.8%
% Inhibition of E1-STS activity in MCF-7 cells ([3]; 0.1 μM): 16.1 ± 4.0%
% Inhibition of E1-STS activity in MCF-7 cells ([3]; 1 μM): 32.7 ± 2.3%
% Inhibition of E1-STS activity in MCF-7 cells ([3]; 10 μM): 90.1 ± 0.7%
Structure (SMILES): NS(=O)(=O)Oc1ccc(C23CC4CC(C2)CC(c2ccc(OS(N)(=O)=O)cc2)(C4)C3)cc1 [Compound 20, (1,3-Adamantanediyl)diphenyl-4,4′-O,O-bis-sulphamate]

melting point: 91 to 93 °C
Structure (SMILES): C[C@]12CCC3c4ccc(OCc5ccccc5)cc4CCC3C1CC[C@H]2OS(N)(=O)=O (stereo partly drawn)

Structure (SMILES): COc1cc2c(cc1O)CCC1C2CC[C@@]2(C)C1CC[C@@]2(O)Cc1ccccc1 (stereo partly drawn) [BLE01014]
Plate assay % inhibition ([2]; 0.1 μM): −14%
Plate assay % inhibition ([2]; 1 μM): −14%

Structure (SMILES): CCCCCN(CCCCC)S(=O)(=O)O[C@@H]1CC[C@H]2[C@@H]3CCc4cc(OS(N)(=O)=O)ccc4[C@H]3CC[C@]12C [BLE00083B, 3-O-Sulfamoyl-estra-1,3,5(10)-trien-17α-O—(N,N-dipentyl)sulfamate]
Plate assay % inhibition ([2]; 0.1 μM): 8%
Plate assay % inhibition ([2]; 10 μM): 24%

% Inhibition of E1-STS activity in placental microsomes ([1]; 10 μM): 11.7 ± 2.3%
% Inhibition of E1-STS activity in placental microsomes ([1]; 25 µM): 17.3 ± 2.7%
% Inhibition of E1-STS activity in placental microsomes ([1]; 50 µM): 22.8 ± 1.4%
% Inhibition of E1-STS activity in placental microsomes ([1]; 100 µM): 34.3 ± 1.0%
% Inhibition of E1-STS activity in MCF-7 cells ([3]; 0.1 μM): <10%
% Inhibition of E1-STS activity in MCF-7 cells ([3]; 1 μM): 39.3 ± 0.1%
% Inhibition of E1-STS activity in MCF-7 cells ([3]; 10 μM): 92.4 ± 0.1%
Structure (SMILES): NS(=O)(=O)Oc1ccc(Cc2ccc(O)cc2)cc1 [Compound 19, 4-sulphamoyloxy-4′ hydroxydiphenylmethane]

Structure (SMILES): CCCCCN(CCCCC)S(=O)(=O)O[C@H]1CCC2C3CCc4cc(OS(N)(=O)=O)ccc4C3CC[C@@]21C (stereo partly drawn) [BLE99074, 3-O-Sulfamoyl-estra-1,3,5(10)-trien-17β-O—(N,N-dipentyl)sulfamate]
inhibition at 1 µM ([1]; 1 μM, -ve % means stimulation): 23.7%
melting point: 105 to 107 °C

Structure (SMILES): COc1cc2c(cc1OS(N)(=O)=O)CCC1C2CCC2(C)C1CCC2(O)Cc1ccccc1 (stereo not drawn) [BLE01018]
inhibition at 0.1 µM ([2]; 0.1 μM): -19%
inhibition at 1 µM ([2]; 1 μM): -12%

% Inhibition of E1-STS activity in placental microsomes ([1]; 10 μM): 65.0 ± 1.8%
% Inhibition of E1-STS activity in placental microsomes ([1]; 25 µM): 85.5 ± 0.6%
% Inhibition of E1-STS activity in placental microsomes ([1]; 50 µM): 92.3 ± 0.3%
% Inhibition of E1-STS activity in placental microsomes ([1]; 100 µM): 95.4 ± 0.2%
% Inhibition of E1-STS activity in MCF-7 cells ([3]; 0.1 μM): <10%
% Inhibition of E1-STS activity in MCF-7 cells ([3]; 1 μM): 50.6 ± 3.3%
% Inhibition of E1-STS activity in MCF-7 cells ([3]; 10 μM): 87.4 ± 2.7%
Structure (SMILES): NS(=O)(=O)Oc1ccc(S(=O)(=O)c2ccc(OS(N)(=O)=O)cc2)cc1 [Compound 14, Sulphonyldiphenyl-4,4′-O,O-bis-sulphamate]

Structure (SMILES): CC12CCC3c4ccc(OS(N)(=O)=O)cc4CCC3C1CCC2OS(N)(=O)=O (stereo not drawn) [BLE99031B]
inhibition at 0.1 µM ([2]; 0.1 μM): 7%
inhibition at 1 µM ([2]; 1 μM): 12%
inhibition at 10 µM ([2]; 10 μM): 32%
